Results published in ChEMBL document CHEMBL1177690, “Target-specific control of lymphoid-specific protein tyrosine phosphatase (Lyp) activity” (Bioorg Med Chem, 2010).

Columns and labels:
[1] = Activity at Lyp CCPGCC mutant expressed in Escherichia coli using pNPP as a substrate […]
[2] = molecular target: T1, Tyrosine-protein phosphatase non-receptor type 22 (Homo sapiens) (UniProt Q9Y2R2); test: Inhibition of Lyp expressed in Escherichia coli […]
T1 sequence (whole entry): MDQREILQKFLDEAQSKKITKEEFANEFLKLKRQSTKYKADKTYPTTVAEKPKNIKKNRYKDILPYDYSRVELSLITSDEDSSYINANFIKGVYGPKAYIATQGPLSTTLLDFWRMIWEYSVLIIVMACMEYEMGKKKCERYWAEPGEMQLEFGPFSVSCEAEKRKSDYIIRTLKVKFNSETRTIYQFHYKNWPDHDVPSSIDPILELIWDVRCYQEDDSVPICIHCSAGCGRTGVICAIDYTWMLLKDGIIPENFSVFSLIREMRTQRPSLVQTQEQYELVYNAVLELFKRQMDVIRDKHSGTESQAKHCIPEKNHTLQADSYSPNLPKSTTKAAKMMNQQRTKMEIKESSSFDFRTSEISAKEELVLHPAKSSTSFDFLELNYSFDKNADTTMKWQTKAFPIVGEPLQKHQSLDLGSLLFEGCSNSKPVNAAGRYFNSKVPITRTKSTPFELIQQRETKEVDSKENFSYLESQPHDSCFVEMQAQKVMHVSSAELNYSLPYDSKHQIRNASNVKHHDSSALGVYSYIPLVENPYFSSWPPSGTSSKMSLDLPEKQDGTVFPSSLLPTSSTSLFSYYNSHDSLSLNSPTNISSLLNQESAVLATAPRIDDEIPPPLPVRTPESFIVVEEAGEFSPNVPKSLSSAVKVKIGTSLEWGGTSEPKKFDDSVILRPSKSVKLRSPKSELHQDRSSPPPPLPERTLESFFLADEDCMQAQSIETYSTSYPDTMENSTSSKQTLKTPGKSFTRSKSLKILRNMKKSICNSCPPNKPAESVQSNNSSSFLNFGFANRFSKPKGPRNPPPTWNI

In the case of `O=C(O)c1ccccc1-c1c2ccc(=O)c([As]3SCCS3)c-2oc2c([As]3SCCS3)c(O)ccc12`, the kcat [1] was 0.057 s⁻¹ and the Activity [2] was “Dose-dependent effect”.
